# Laboratory results as given in patent US20260250325A1, “Antiviral Polypeptide Membrane Fusion Inhibitor, and Preparation Method and Application Thereof” (priority 2025, published 2026).
# Where a SMILES comes first, the peptide text is derived from it. The star is where a group is joined. Succinyl(4-O-cholesteryl) = CC(C)CCC[C@@H](C)[C@H]1CC[C@H]2[C@@H]3CC=C4C[C@@H](OC(=O)CCC(=O)*)CC[C@]4(C)[C@H]3CC[C@]12C
# How the values were obtained:
# [1] = Cytotoxicity test in HEp-2 cells (CCK8 cell viability); format: cell-based; settings: human; HEp-2 cells, CCK8, 1 day; read-out: CC50
# Procedure, shortened: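 Compound dilutions (final DMSO 0.5%) were applied for 1 day to HEp-2 cells plated at 30,000 per well the day before. CCK8 signal gave survival relative to cell and medium controls, and a four-parameter log(inhibitor)-response fit yielded CC50.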
# hMPV B1 = format: cell-based; settings: Vero cells, plaque reduction
# Experimental: (§1) African green monkey kidney cells (Vero) were sourced from the ATCC, with catalog number CCL-81. The cells were cultured in a DMEM culture solution in which 10% fetal bovine serum, 1% non-essential amino acids, 1% sodium pyruvate, 1% L-glutamine, 100 U/ml penicillin, and 100 μg/ml streptomycin were added.
# (§2) A hMPV plaque experiment culture medium consisted of an Opti-MEM culture solution added with 1% non-essential amino acids, 100 U/mL penicillin, and 100 μg/mL streptomycin.
# (§3) hMPV virus strains A2 and B1 were constructed by WuXi App Tec.
# (§4) This study used a plaque reduction experiment to detect the in-vitro activity of a test sample against the hMPV virus strains A2 and B1.
# (§5) The test sample and an experimental system were tested at 8 concentrations in duplicated wells. The Vero cells were digested with trypsin and then diluted to a concentration of 400,000 cells per milliliter by using a cell culture solution containing 2% serum. The diluted cells were added to a 96-well cell test board, with 100 μL per well, corresponding to 40000 cells per well. The cells were cultured overnight in a 37° C. incubator with 5% CO2.
# (§6) On the second day, the test sample was diluted in an experimental culture medium at a fold ratio. The sample diluted at a fold ratio and an equal volume of virus (approximately 200 PFU per well) were well mixed and incubated at 33° C. in 5% CO2 for 1 h. Then, the culture solution in the 96-well cell test board was discarded, the sample virus mixed solution (100 μL) was added to the 96-well cell culture plate, and incubated at 37° C. in 5% CO2 for 2 hours. After 2 h, the sample virus mixed solution was discarded, 200 μL of an experiment culture medium containing the test sample with a corresponding concentration was added, and the culture solution contained 0.8% CMC and 5 μg/ml trypsin. A final concentration of DMSO in the culture solution was 0.5%. A system control antibody was directly added to the experiment culture solution containing 0.8% CMC and 5 μg/ml trypsin. A cell control (cells, without compound treatment or viral infection) and a viral control (cell infection virus, without compound treatment) were set. The cells were cultured for 1 day in the 33° C. incubator with 5% CO2.
# (§7) The cells were fixed with 4% paraformaldehyde, and then permeabilization was performed with 0.5% Triton X-100. After the plate was washed with DPBS, a hMPV specific antibody (1:2000 dilution) was added and incubated at 37° C. for 1.5 h. Then, a secondary antibody (1:1000 dilution) was added and incubated at 37° C. for 1 hour. The secondary antibody was discarded, a TrueBlue solution was added, dyeing was performed for approximately 10 minutes; and the plate was washed with running water and then air-dried, and the number of spots in each well was counted by using a microplate imaging counter.
# (§8) Raw data was used for analyzing the antiviral activity of the test samples. A calculation formula was shown as follows.
# (§9) % inhibition rate=100−(sample value-cell control average value)/(virus control average value-cell control average value)×100
# (§10) Non-linear fitting analysis was performed on the inhibition rate of the sample by using GraphPad Prism (version 10), so as to calculate an EC50 value for the sample. A fitting formula was log (inhibitor) vs. response-Variable slope (four parameters).
# hMPV A2 = format: cell-based; settings: Vero cells, plaque reduction
# Experimental: as §1, §2, §3, §4, §5, §6, §7, §8, §9, §10
# hPIV-N51 (139-189) = biological target: T1, hPIV-N51 (139-189) (Human parainfluenza 3 virus, UniProt P06828); test: SPR affinity to hPIV-N51 coupled on CM5 chip; format: binding
# T1 construct: hPIV-N51 (139-189)
# Experimental: hMPV and hPIV were two viruses having a typical Class I fusion protein-F protein. An F protein precursor F0 was cracked into F1 and F2 subunits. […] When the compound flowed through a chip surface, changes in an SPR signal were monitored in real time, binding and dissociation processes were recorded, and a binding rate constant (ka) and a dissociation rate constant (kd) were further obtained through kinetic analysis, thereby calculating an equilibrium dissociation constant (KD=kd/ka).
# A CM5 chip with a catalog number 29149603, an amino coupling reagent kit with a catalog number BR100050, HBS-EP+Buffer (10×), sodium acetate (pH 4.0), and a 10 mM glycine-HCl buffer (pH 2.0) were all purchased from GE Health.
# CM5 chip coupling: Channels 2 and 4 of the CM5 chip were activated for 7 min by using a freshly-prepared mixture of 50 mM Hydroxy succinimide (NHS) and 200 mM 1-(3-Dimethylaminopropyl)-3-ethylcarbodiimide (EDC) according to 1:1; and then, hMPV-N46 or hPIV-N51 was diluted and dissolved with sodium acetate with 4.0 pH to a concentration of 30 μM, with a flow rate of 10 μl/min and time of 600 s. An experimental buffer was HBS-EP+buffer (1×). Finally, the chip was blocked with 1 M ethanolamine. The instrument was set to a temperature of 25° C.
# Affinity detection: the buffer used in the experiment was HBS-EP+buffer (1×), and a multi-cycle dynamic mode was used. Channels 1 and 3 of the chip served as blank reference channels; polypeptides to be detected sequentially flowed through Channels 2 and 4 at concentrations of 0 μM, 0.04 µM, 0.12 µM, 0.37 μM, 1.11 µM, 3.33 µM, 10 µM, and 30 μM; the flow rate was 30 μl/min, binding was performed for 180 s, and dissociation was performed for 120 s. Finally, the chip was regenerated by injecting 10 mM glycine (pH 2.0). The instrument was set to a temperature of 25° C.
# T1 sequence (P06828 139-189): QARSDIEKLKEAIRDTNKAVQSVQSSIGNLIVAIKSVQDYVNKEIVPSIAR
Structure (SMILES),CC50 at 1 day [1] [nM],EC50 (hMPV B1) [nM],EC50 (hMPV A2) [nM],Kd (hPIV-N51 (139-189)) [nM]
CC[C@H](C)[C@H](NC(=O)[C@H](CCCCN)NC(=O)[C@H](CCCCN)NC(=O)[C@H](CC(C)C)NC(=O)[C@H](CO)NC(=O)[C@H](CCC(=O)O)NC(=O)[C@H](CCC(=O)O)NC(=O)[C@@H](NC(=O)[C@H](CCCCN)NC(=O)[C@H](CCCCN)NC(=O)[C@H](CC(N)=O)NC(=O)[C@@H](NC(=O)[C@H](CCC(=O)O)NC(=O)[C@H](CCC(=O)O)NC(=O)[C@@H](NC(=O)[C@H](CCCCN)NC(=O)[C@H](CCCCN)NC(=O)[C@H](CC(=O)O)NC(=O)[C@H](Cc1ccccc1)NC(=O)[C@H](CCC(=O)O)NC(=O)[C@H](CC(=O)O)NC(=O)[C@H](Cc1c[nH]c2ccccc12)NC(C)=O)[C@@H](C)CC)C(C)C)[C@@H](C)CC)C(=O)N[C@@H](CCC(=O)O)C(=O)N[C@@H](CCC(=O)O)C(=O)N[C@@H](CO)C(=O)N[C@@H](CC(=O)O)C(=O)N[C@@H](CCCCN)C(=O)N[C@@H](CCCCN)C(=O)N[C@@H](CC(C)C)C(=O)N[C@@H](CCC(=O)O)C(=O)N[C@@H](CCC(=O)O)C(=O)N[C@H](C(=O)N[C@@H](CC(N)=O)C(=O)N[C@@H](C)C(=O)N[C@@H](CCC(=O)O)C(=O)N[C@@H](C)C(=O)N[C@@H](C)C(=O)N[C@@H](C)C(=O)N[C@@H](CCCCN)C(=O)N[C@@H](CCCCNC(=O)CCC(=O)O[C@H]1CC[C@@]2(C)C(=CC[C@H]3[C@@H]4CC[C@H]([C@H](C)CCCC(C)C)[C@@]4(C)CC[C@@H]32)C1)C(N)=O)C(C)C [Compound 40] (Ac-WDEFDKKIEEVNKKIEESLKKIEESDKKLEEVNAEAAAKK(Succinyl(4-O-cholesteryl))-NH2),13000,7.47,13.8,2270
CC[C@H](C)[C@H](NC(=O)[C@H](CCCCN)NC(=O)[C@H](CCCCN)NC(=O)[C@H](CC(C)C)NC(=O)[C@H](CO)NC(=O)[C@H](CCC(=O)O)NC(=O)[C@H](CCC(=O)O)NC(=O)[C@@H](NC(=O)[C@H](CCCCN)NC(=O)[C@H](CCCCN)NC(=O)[C@H](CC(N)=O)NC(=O)[C@@H](NC(=O)[C@H](CCC(=O)O)NC(=O)[C@H](CCC(=O)O)NC(=O)[C@@H](NC(=O)[C@H](CCCCN)NC(=O)[C@H](CCCCN)NC(=O)[C@H](CC(=O)O)NC(=O)[C@H](Cc1ccccc1)NC(=O)[C@H](CCC(=O)O)NC(=O)[C@H](CC(=O)O)NC(=O)[C@H](Cc1c[nH]c2ccccc12)NC(C)=O)[C@@H](C)CC)C(C)C)[C@@H](C)CC)C(=O)N[C@@H](CCC(=O)O)C(=O)N[C@@H](CCC(=O)O)C(=O)N[C@@H](CO)C(=O)N[C@@H](CC(=O)O)C(=O)N[C@@H](CCCCN)C(=O)N[C@@H](CCCCN)C(=O)N[C@@H](CC(C)C)C(=O)N[C@@H](CCC(=O)O)C(=O)N[C@@H](CCC(=O)O)C(=O)N[C@H](C(=O)N[C@@H](CC(N)=O)C(=O)N[C@@H](CCC(=O)O)C(=O)N[C@@H](C)C(=O)N[C@@H](C)C(=O)N[C@@H](C)C(=O)N[C@@H](CCCCN)C(=O)N[C@@H](CCCCNC(=O)CCC(=O)O[C@H]1CC[C@@]2(C)C(=CC[C@H]3[C@@H]4CC[C@H]([C@H](C)CCCC(C)C)[C@@]4(C)CC[C@@H]32)C1)C(N)=O)C(C)C [Compound 41] (Ac-WDEFDKKIEEVNKKIEESLKKIEESDKKLEEVNEAAAKK(Succinyl(4-O-cholesteryl))-NH2),17000,9.46,11.7,492
CC[C@H](C)[C@H](NC(=O)[C@H](CO)NC(=O)[C@H](C)NC(=O)[C@H](CC(=O)O)NC(=O)[C@H](Cc1ccccc1)NC(C)=O)C(=O)N[C@@H](CCC(=O)O)C(=O)N[C@@H](CCC(=O)O)C(=O)N[C@H](C(=O)N[C@@H](CC(N)=O)C(=O)N[C@@H](CCCNC(=N)N)C(=O)N[C@@H](CCCNC(=N)N)C(=O)N[C@H](C(=O)N[C@@H](CCC(=O)O)C(=O)N[C@@H](CCC(=O)O)C(=O)N[C@@H](CO)C(=O)N[C@@H](CC(C)C)C(=O)N[C@@H](CCCNC(=N)N)C(=O)N[C@@H](CCCNC(=N)N)C(=O)N[C@H](C(=O)N[C@@H](CCC(=O)O)C(=O)N[C@@H](CCC(=O)O)C(=O)N[C@@H](CO)C(=O)N[C@@H](CC(=O)O)C(=O)N[C@@H](CCCNC(=N)N)C(=O)N[C@@H](CCCNC(=N)N)C(=O)N[C@@H](CC(C)C)C(=O)N[C@@H](CCC(=O)O)C(=O)N[C@@H](CCC(=O)O)C(=O)N[C@H](C(=O)N[C@@H](CC(N)=O)C(=O)N[C@@H](C)C(=O)N[C@@H](CCC(=O)O)C(=O)N[C@@H](C)C(=O)N[C@@H](C)C(=O)N[C@@H](C)C(=O)N[C@@H](CCCCN)C(=O)N[C@@H](CCCCNC(=O)CCC(=O)O[C@H]1CC[C@@]2(C)C(=CC[C@H]3[C@@H]4CC[C@H]([C@H](C)CCCC(C)C)[C@@]4(C)CC[C@@H]32)C1)C(N)=O)C(C)C)[C@@H](C)CC)[C@@H](C)CC)C(C)C [Compound 42] (Ac-FDASIEEVNRRIEESLRRIEESDRRLEEVNAEAAAKK(Succinyl(4-O-cholesteryl))-NH2),3710,10.1,26.1,485
CC[C@H](C)[C@H](NC(=O)[C@H](CO)NC(=O)[C@H](C)NC(=O)[C@H](CC(=O)O)NC(=O)[C@H](Cc1ccccc1)NC(=O)[C@H](CCC(=O)O)NC(=O)[C@H](CC(=O)O)NC(=O)[C@H](Cc1c[nH]c2ccccc12)NC(C)=O)C(=O)N[C@@H](CCC(=O)O)C(=O)N[C@@H](CCC(=O)O)C(=O)N[C@H](C(=O)N[C@@H](CC(N)=O)C(=O)N[C@@H](CCCNC(=N)N)C(=O)N[C@@H](CCCNC(=N)N)C(=O)N[C@H](C(=O)N[C@@H](CCC(=O)O)C(=O)N[C@@H](CCC(=O)O)C(=O)N[C@@H](CO)C(=O)N[C@@H](CC(C)C)C(=O)N[C@@H](CCCNC(=N)N)C(=O)N[C@@H](CCCNC(=N)N)C(=O)N[C@H](C(=O)N[C@@H](CCC(=O)O)C(=O)N[C@@H](CCC(=O)O)C(=O)N[C@@H](CO)C(=O)N[C@@H](CC(=O)O)C(=O)N[C@@H](CCCNC(=N)N)C(=O)N[C@@H](CCCNC(=N)N)C(=O)N[C@@H](CC(C)C)C(=O)N[C@@H](CCC(=O)O)C(=O)N[C@@H](CCC(=O)O)C(=O)N[C@H](C(=O)N[C@@H](CCC(=O)O)C(=O)N[C@@H](C)C(=O)N[C@@H](C)C(=O)N[C@@H](C)C(=O)N[C@@H](CCCCN)C(=O)N[C@@H](CCCCNC(=O)CCC(=O)O[C@H]1CC[C@@]2(C)C(=CC[C@H]3[C@@H]4CC[C@H]([C@H](C)CCCC(C)C)[C@@]4(C)CC[C@@H]32)C1)C(N)=O)C(C)C)[C@@H](C)CC)[C@@H](C)CC)C(C)C [Compound 43] (Ac-WDEFDASIEEVNRRIEESLRRIEESDRRLEEVEAAAKK(Succinyl(4-O-cholesteryl))-NH2),12200,8.01,16.8,5720
